Ki data for 24 compounds are collected here from patent US8530489B2 (Vertex Pharmaceuticals Incorporated, priority 2006, dated 2013).

As a reminder, the pKi is the negative decadic logarithm of the Ki, by convention in mol/L.

pKi: −log10 of the molar value.

PLK1, sequence (P53350 whole entry): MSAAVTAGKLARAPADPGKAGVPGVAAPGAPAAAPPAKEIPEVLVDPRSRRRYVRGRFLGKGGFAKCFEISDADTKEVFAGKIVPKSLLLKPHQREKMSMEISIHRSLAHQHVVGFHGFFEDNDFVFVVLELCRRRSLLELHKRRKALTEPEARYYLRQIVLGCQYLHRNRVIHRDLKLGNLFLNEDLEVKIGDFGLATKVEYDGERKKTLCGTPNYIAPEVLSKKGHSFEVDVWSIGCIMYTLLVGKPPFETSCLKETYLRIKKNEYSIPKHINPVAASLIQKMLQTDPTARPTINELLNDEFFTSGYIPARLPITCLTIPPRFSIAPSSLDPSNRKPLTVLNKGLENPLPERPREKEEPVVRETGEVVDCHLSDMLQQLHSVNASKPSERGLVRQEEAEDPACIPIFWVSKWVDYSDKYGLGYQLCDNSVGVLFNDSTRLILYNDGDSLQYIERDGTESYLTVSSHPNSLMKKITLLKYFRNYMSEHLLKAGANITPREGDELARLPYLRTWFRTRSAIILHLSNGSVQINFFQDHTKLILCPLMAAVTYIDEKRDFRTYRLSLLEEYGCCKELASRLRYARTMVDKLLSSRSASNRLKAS

The assay concerns the target PLK1 (Homo sapiens, UniProt P53350). Put plainly: PLK1 Inhibition Assay I (radioactive-phosphate incorporation). It counts as biochemical. The settings on record: Ki(app); PLK1 Inhibition Assay I or II (table does not say which). How it is done:
The compounds of the present invention are evaluated as inhibitors of human PLK kinase using the following assays.
Compounds were screened for their ability to inhibit PLK1 using a radioactive-phosphate incorporation assay. Assays were carried out in a mixture of 25 mM HEPES (pH 7.5), 10 mM MgCl2, and 1 mM DTT. Final substrate concentrations were 350 μM [γ-33P]ATP (136 mCi 33P ATP/mmol ATP, Amersham Pharmacia Biotech/Sigma Chemicals) and 450 μM peptide (KKKISDELMDATFADQEAK) [SEQ. ID:1]. Assays were carried out at 25° C. in the presence of 2 nM PLK1. An assay stock buffer solution was prepared containing all of the reagents listed above, with the exception of ATP and the test compound of interest. 30 μL of the stock solution was placed in a 96 well plate followed by addition of 2 μL of DMSO stock containing serial dilutions of the test compound (typically starting from a final concentration of 10 μM with 2-fold serial dilutions) in duplicate (final DMSO concentration 5%). The plate was pre-incubated for 10 minutes at 25° C. and the reaction initiated by addition of 8 μL [γ-33P]ATP (final concentration 350 μM).
The reaction was stopped after 240 minutes by the addition of 100 μL 0.14M phosphoric acid. A multiscreen phosphocellulose filter 96-well plate (Millipore, Cat No. MAPHN0B50) was pretreated with 100 μL 0.1 M phosphoric acid prior to the addition of 125 μL of the stopped assay mixture. The plate was washed with 4×200 μL 0.1 M phosphoric acid. After drying, 100 μL Optiphase ‘SuperMix’ liquid scintillation cocktail (Perkin Elmer) was added to the well prior to scintillation counting (1450 Microbeta Liquid Scintillation Counter, Wallac).
After removing mean background values for all of the data points, Ki(app) data were calculated from non-linear regression analysis of the initial rate data using the Prism software package (GraphPad Prism version 3.0cx for Macintosh, GraphPad Software, San Diego Calif., USA).
For the compound `N#Cc1cnc(NCc2ccc(Cl)cc2)nc1-c1c[nH]c2ncc(C(F)(F)F)cc12` [Compound I-19, 2-(4-chlorobenzylamino)-4-(5-(trifluoromethyl)-1H-pyrrolo[2,3-b]pyridin-3-yl)pyrimidine-5-carbonitrile], the pKi is less than 7.40. Then `C[C@@H](Nc1ncc(C#N)c(-c2c[nH]c3ncc(C(F)(F)F)cc23)n1)c1ccc(N(C)C2CCN(C)C2)nc1` (stereo partly drawn) [Compound I-295, 2-((1R)-1-(6-(methyl(1-methylpyrrolidin-3-yl)amino)pyridin-3-yl)ethylamino)-4-(5-(trifluoromethyl)-1H-pyrrolo[2,3-b]pyridin-3-yl)pyrimidine-5-carbonitrile], with greater than 8.52. On to `CC(=O)N1CCC([C@H](C)Nc2ncc(C#N)c(-c3c[nH]c4ncc(C(F)(F)F)cc34)n2)CC1` [Compound I-135, 2-((S)-1-(1-acetylpiperidin-4-yl)ethylamino)-4-(5-(trifluoromethyl)-1H-pyrrolo[2,3-b]pyridin-3-yl)pyrimidine-5-carbonitrile], for which the pKi was 7.40 to 8.52. Then `CC(Nc1ncc(C#N)c(-c2c[nH]c3ncc(C(F)(F)F)cc23)n1)C1CN(C(=O)CN)C1` (stereo not drawn) [Compound I-235, 2-(1-(1-(2-aminoacetyl)azetidin-3-yl)ethylamino)-4-(5-(trifluoromethyl)-1H-pyrrolo[2,3-b]pyridin-3-yl)pyrimidine-5-carbonitrile], with less than 7.40; and `N#Cc1cnc(NC2CCCc3ccccc32)nc1-c1c[nH]c2ncc(C(F)(F)F)cc12` (stereo not drawn) [Compound I-34, 2-(1,2,3,4-tetrahydronaphthalen-1-ylamino)-4-(5-(trifluoromethyl)-1H-pyrrolo[2,3-b]pyridin-3-yl)pyrimidine-5-carbonitrile], with less than 7.40; and `C[C@@H](Nc1ncc(C#N)c(-c2c[nH]c3ncc(C(F)(F)F)cc23)n1)[C@H]1CC[C@@H](N2CCN(C)CC2)CC1` [Compound I-245, 2-((R)-1-((1s,4S)-4-(4-methylpiperazin-1-yl)cyclohexyl)ethylamino)-4-(5-(trifluoromethyl)-1H-pyrrolo[2,3-b]pyridin-3-yl)pyrimidine-5-carbonitrile], with less than 7.40. Regarding `C[C@@H](Nc1ncc(C#N)c(-c2c[nH]c3ncc(C(F)(F)F)cc23)n1)C1CCN(C(=O)[C@H](O)C(F)(F)F)CC1` [Compound I-230, 2-((R)-1-(1-((S)-3,3,3-trifluoro-2-hydroxypropanoyl)piperidin-4-yl)ethylamino)-4-(5-(trifluoromethyl)-1H-pyrrolo[2,3-b]pyridin-3-yl)pyrimidine-5-carbonitrile], the negative-log Ki (pKi) was greater than 8.52. As to `N#Cc1cnc(NCc2ccc(F)cc2)nc1-c1c[nH]c2ncc(C(F)(F)F)cc12` [Compound I-22, 2-(4-fluorobenzylamino)-4-(5-(trifluoromethyl)-1H-pyrrolo[2,3-b]pyridin-3-yl)pyrimidine-5-carbonitrile], the negative logarithm of the Ki (pKi) was less than 7.40.

On to `CC(C)[C@@H](N)CC(=O)N1CCC([C@@H](C)Nc2ncc(C#N)c(-c3c[nH]c4ncc(C(F)(F)F)cc34)n2)CC1` [Compound I-247, 2-((R)-1-(1-((S)-3-amino-4-methylpentanoyl)piperidin-4-yl)ethylamino)-4-(5-(trifluoromethyl)-1H-pyrrolo[2,3-b]pyridin-3-yl)pyrimidine-5-carbonitrile], for which the pKi was greater than 8.52. On to `CC(C)(Nc1ncc(C#N)c(-c2c[nH]c3ncc(C(F)(F)F)cc23)n1)c1ccccc1` [Compound I-9, 2-(2-phenylpropan-2-ylamino)-4-(5-(trifluoromethyl)-1H-pyrrolo[2,3-b]pyridin-3-yl)pyrimidine-5-carbonitrile], for which the pKi is 7.40 to 8.52. Then `C[C@H](Nc1ncc(C#N)c(-c2c[nH]c3ncc(C(F)(F)F)cc23)n1)c1ccccc1` [Compound I-5, 2-((S)-1-phenylethylamino)-4-(5-(trifluoromethyl)-1H-pyrrolo[2,3-b]pyridin-3-yl)pyrimidine-5-carbonitrile], with less than 7.40; and `CC(Nc1ncc(C#N)c(-c2c[nH]c3ncc(C(F)(F)F)cc23)n1)C1CN(C(=O)[C@@H](C)O)C1` (stereo partly drawn) [Compound I-222, 2-(1-(1-((R)-2-hydroxypropanoyl)azetidin-3-yl)ethylamino)-4-(5-(trifluoromethyl)-1H-pyrrolo[2,3-b]pyridin-3-yl)pyrimidine-5-carbonitrile], with greater than 8.52; and `CC(C)(C)[C@@H](CO)Nc1ncc(C#N)c(-c2c[nH]c3ncc(C(F)(F)F)cc23)n1` [Compound I-111, 2-((S)-1-hydroxy-3,3-dimethylbutan-2-ylamino)-4-(5-(trifluoromethyl)-1H-pyrrolo[2,3-b]pyridin-3-yl)pyrimidine-5-carbonitrile], with greater than 8.52. Then `CC(C)C(C)Nc1ncc(C#N)c(-c2c[nH]c3ncc(C(F)(F)F)cc23)n1` (stereo not drawn) [Compound I-24, 2-(3-methylbutan-2-ylamino)-4-(5-(trifluoromethyl)-1H-pyrrolo[2,3-b]pyridin-3-yl)pyrimidine-5-carbonitrile], with 7.40 to 8.52; and `CC(Nc1ncc(C#N)c(-c2c[nH]c3ncc(C(F)(F)F)cc23)n1)c1ccc(N2CCN(C(=O)OC(C)(C)C)CC2)cc1` (stereo not drawn) [Compound I-123, tert-butyl 4-(4-(1-(5-cyano-4-(5-(trifluoromethyl)-1H-pyrrolo[2,3-b]pyridin-3-yl)pyrimidin-2-ylamino)ethyl)phenyl)piperazine-1-carboxylate], with 7.40 to 8.52; and `C[C@@H](Nc1ncc(C#N)c(-c2c[nH]c3ncc(C(F)(F)F)cc23)n1)C1CCN(C(=O)[C@@H](N)[C@@H](C)O)CC1` [Compound I-242, 2-((R)-1-(1-((2S,3R)-2-amino-3-hydroxybutanoyl)piperidin-4-yl)ethylamino)-4-(5-(trifluoromethyl)-1H-pyrrolo[2,3-b]pyridin-3-yl)pyrimidine-5-carbonitrile], with greater than 8.52. `CC(Nc1ncc(C#N)c(-c2c[nH]c3ncc(C(F)(F)F)cc23)n1)C1CCN(S(C)(=O)=O)CC1` (stereo not drawn) [Compound I-150, 2-(1-(1-(methylsulfonyl)piperidin-4-yl)ethylamino)-4-(5-(trifluoromethyl)-1H-pyrrolo[2,3-b]pyridin-3-yl)pyrimidine-5-carbonitrile]: the negative-log Ki (pKi) was greater than 8.52. Then `CC[C@@H](O)C(=O)N1CCC([C@@H](C)Nc2ncc(C#N)c(-c3c[nH]c4ncc(C(F)(F)F)cc34)n2)CC1` [Compound I-219, 2-((R)-1-(1-((R)-2-hydroxybutanoyl)piperidin-4-yl)ethylamino)-4-(5-(trifluoromethyl)-1H-pyrrolo[2,3-b]pyridin-3-yl)pyrimidine-5-carbonitrile], with greater than 8.52. Then `N#Cc1cnc(NC[C@@H](O)CO)nc1-c1c[nH]c2ncc(C(F)(F)F)cc12` [Compound I-115, 2-((R)-2,3-dihydroxypropylamino)-4-(5-(trifluoromethyl)-1H-pyrrolo[2,3-b]pyridin-3-yl)pyrimidine-5-carbonitrile], with 7.40 to 8.52.

In the case of `CC(Nc1ncc(C#N)c(-c2c[nH]c3ncc(C(F)(F)F)cc23)n1)C1CN(C(=O)C(C)(C)O)C1` (stereo not drawn) [Compound I-221, 2-(1-(1-(2-hydroxy-2-methylpropanoyl)azetidin-3-yl)ethylamino)-4-(5-(trifluoromethyl)-1H-pyrrolo[2,3-b]pyridin-3-yl)pyrimidine-5-carbonitrile], the pKi was 7.40 to 8.52.

As for `CC(C)(Nc1ncc(C#N)c(-c2c[nH]c3ncc(C(F)(F)F)cc23)n1)C(=O)NCC(F)(F)F` [IA-0, 2-(5-cyano-4-(5-(trifluoromethyl)-1H-pyrrolo[2,3-b]pyridin-3-yl)pyrimidin-2-ylamino)-2-methyl-N-(2,2,2-trifluoroethyl)propanamide], the negative logarithm of the Ki (pKi) was 7.40 to 8.52. Then `C[C@@H](Nc1ncc(C#N)c(-c2c[nH]c3ncc(C(F)(F)F)cc23)n1)C1CCN(C(=O)[C@H]2C[C@@H](N)C2)CC1` [Compound I-253, 2-((R)-1-(1-((1s,3S)-3-aminocyclobutanecarbonyl)piperidin-4-yl)ethylamino)-4-(5-(trifluoromethyl)-1H-pyrrolo[2,3-b]pyridin-3-yl)pyrimidine-5-carbonitrile], with greater than 8.52; and `C[C@@H](Nc1ncc(C#N)c(-c2c[nH]c3ncc(C(F)(F)F)cc23)n1)C1CCN(C(=O)C(O)CN)CC1` (stereo partly drawn) [Compound I-260, 2-((1R)-1-(1-(3-amino-2-hydroxypropanoyl)piperidin-4-yl)ethylamino)-4-(5-(trifluoromethyl)-1H-pyrrolo[2,3-b]pyridin-3-yl)pyrimidine-5-carbonitrile], with greater than 8.52; and `N#Cc1cnc(NCc2ccc(C(F)(F)F)nc2)nc1-c1c[nH]c2ncc(C(F)(F)F)cc12` [Compound I-32, 4-(5-(trifluoromethyl)-1H-pyrrolo[2,3-b]pyridin-3-yl)-2-((6-(trifluoromethyl)pyridin-3-yl)methylamino)pyrimidine-5-carbonitrile], with less than 7.40.
